Data on eleven compounds can be found in ChEMBL document CHEMBL1201862, “PubChem BioAssay data set” (2004).

Common to all, as to assay: inhibition of tumour cell growth, NCI panel, 48 h
In experiment [1] the test system is NCI-H522.
The test system of experiment [2] is EKVX.
The test system of experiment [3] is MDA-MB-231.
The subject of experiment [4] is SK-MEL-2.
Experiment [5] deals with CCRF-CEM.
For experiment [6], the system named is SF-539.
Experiment [7] concerns SK-OV-3.
Experiment [8] has as its system OVCAR-3.
Experiment [9] relates to MDA-MB-435.
In experiment [10] the test system is UO-31.
In experiment [11] the test system is HT-29.
In experiment [12] the test system is DU-145.
For experiment [13], the system named is PC-3.
Experiment [14] relates to IGROV-1.
The test system of experiment [15] is A549.
Experiment [16] has as its system T47D.
Experiment [17] deals with UACC-62.
Experiment [18] concerns HOP-92.
For experiment [19], the system named is SF-295.
Experiment [20] relates to HCC 2998.

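Test compounds were applied to cells in 96-well plates for 48 hours at 5 doses. GI50: concentration for 50% inhibition of growth.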 Calls of active or inactive are those of the source. No stated cut-off is given here; in the data, active = GI50 up to about 1.1 µM and inactive = higher.

Consider `C=CC1OC(CCCOC(=O)C(C)(C)C)O[C@@H]1CC` (some centres undefined), for which the GI50 in [1], in experiment [2], in experiment [3], in [4], in [5] and in [6] was > 100 µM (inactive) in each case. For the same compound, the GI50 in experiment [7], in experiment [8], in [9], in experiment [10], in experiment [11] and in [12] was > 100 µM (inactive) throughout. The GI50 in experiment [13], in experiment [14], in [15], in [16], in experiment [17] and in experiment [18] was > 100 µM (inactive) in each case. Besides, the GI50 in experiment [19] is > 100 µM (inactive).
With `Nc1ccn(C2OC(CO)C(O)C2(F)F)c(=O)n1` (centres undefined), the GI50 in experiment [1] was 0.318 µM (active); in experiment [2], 0.973 µM (active); in experiment [3], 0.828 µM (active); in experiment [6], 0.109 µM (active); in experiment [7], 0.667 µM (active); in experiment [8], 1.88 µM (inactive). The GI50 in [9] is 0.384 µM (active); in experiment [10] it was 0.0658 µM (active); in experiment [11], 0.492 µM (active); in [12], 0.179 µM (active); in experiment [13], 0.885 µM (active); in experiment [14] it was 0.301 µM (active). Also, the GI50 is 0.055 µM (active) in experiment [15]; 0.387 µM (active) in experiment [16]; 0.127 µM (active) in experiment [17]; 0.462 µM (active) in experiment [18]; 0.254 µM (active) in [19]; 0.728 µM (active) in [20].
In the case of `CCOC(=O)c1c(NC(=O)Nc2ccccc2)c(C(N)=O)c2n1CCCCC2`, the GI50 in experiment [2], in experiment [3], in experiment [4], in [5], in experiment [6] and in [7] was > 100 µM (inactive) in each case. The GI50 in experiment [9], in experiment [10], in experiment [11], in experiment [12], in [13] and in [14] was > 100 µM (inactive) each time. Further, the GI50 in experiment [16], in experiment [17], in experiment [18], in [19] and in experiment [20] was > 100 µM (inactive) each time.
As for `CCOP(=O)(COCCn1nc(Br)c(=O)[nH]c1=O)OCC`, the GI50 in experiment [1], in experiment [2], in experiment [3], in experiment [4], in experiment [5] and in experiment [6] was > 100 µM (inactive) each time. Moreover, the GI50 in experiment [8], in experiment [9], in experiment [10], in experiment [12], in experiment [13] and in experiment [14] was > 100 µM (inactive) throughout. The GI50 in experiment [15], in experiment [16], in experiment [18] and in experiment [20] was > 100 µM (inactive) each time.
Regarding `Cc1cccc(C(O)c2ccccn2)c1O` (centres undefined), the GI50 in [1], in experiment [2], in [3], in experiment [5], in experiment [6] and in [8] was > 100 µM (inactive) in each case. The GI50 in [9], in experiment [10], in experiment [11], in [12], in experiment [13] and in [14] was > 100 µM (inactive) throughout. Besides, the GI50 is > 100 µM (inactive) in [15]; 15.7 µM (inactive) in [16]; 74.6 µM (inactive) in experiment [17]; > 100 µM (inactive) in experiment [19]; > 100 µM (inactive) in experiment [20].
On to `COc1cc(C2S/C(=C/c3ccccc3)C(=O)N2c2cccc(NC(C)=O)c2)cc(OC)c1OC` (centres undefined), for which the GI50 was 13.5 µM (inactive) in experiment [1]; 19.3 µM (inactive) in [2]; 13.9 µM (inactive) in [3]; 40.2 µM (inactive) in experiment [5]; 56 µM (inactive) in experiment [7]; 18.3 µM (inactive) in [9]. The GI50 is 36.6 µM (inactive) in [10]; 21.1 µM (inactive) in experiment [11]; 14.1 µM (inactive) in experiment [13]; 39.2 µM (inactive) in [15]; 15.4 µM (inactive) in experiment [16]; 29.1 µM (inactive) in [17]. In addition, the GI50 in [18] is 16.4 µM (inactive); in [19], 40.5 µM (inactive); in experiment [20], 29.6 µM (inactive).
As to `CN1C[C@H]2[C@@H](C1=O)[C@H](c1ccc([N+](=O)[O-])cc1)ON2C`, the GI50 in [1], in experiment [3], in [4], in [5], in [7] and in experiment [8] was > 100 µM (inactive) in each case. The GI50 in experiment [9], in experiment [10], in experiment [11], in experiment [12], in experiment [13] and in experiment [14] was > 100 µM (inactive) in each case. For the same compound, the GI50 in experiment [15], in experiment [16], in [18], in experiment [19] and in experiment [20] was > 100 µM (inactive) throughout.
On to `Cc1ccc(C2=C(C#N)C(N)OC3=C2COc2ccccc23)cc1` (centres undefined), for which the GI50 in experiment [2] is 7.19 µM (inactive); in experiment [3], 23.7 µM (inactive); in [4] it was 26.6 µM (inactive); in [5], 22.9 µM (inactive); in experiment [6], 39.6 µM (inactive); in [7] it was 25.9 µM (inactive). For the same compound, the GI50 in [8] is 17 µM (inactive); in experiment [9], 51.9 µM (inactive); in [10] it was 14.3 µM (inactive); in experiment [11] it was 4.85 µM (inactive); in [12] it was 17.6 µM (inactive); in experiment [13] it was 18.9 µM (inactive). The GI50 in [14] was 57.8 µM (inactive); in experiment [15], 31.4 µM (inactive); in [17], 78 µM (inactive); in experiment [18], 31.8 µM (inactive); in experiment [20], 41.6 µM (inactive).
As for `OC(c1cccnc1Cl)c1nc2ccccc2c2ccnc(Cl)c12` (centres undefined), the GI50 is 1.05 µM (active) in [1]; 19.2 µM (inactive) in experiment [2]; 7.82 µM (inactive) in [3]; 4.94 µM (inactive) in experiment [4]; 3.02 µM (inactive) in [6]; 8.38 µM (inactive) in [7]. Besides, the GI50 in [8] is 6.08 µM (inactive); in experiment [9], 0.628 µM (active); in [10], 8.87 µM (inactive); in experiment [11] it was 4.6 µM (inactive); in experiment [12], 23 µM (inactive); in experiment [13] it was 2.11 µM (inactive). The GI50 in experiment [14] was 5.02 µM (inactive); in experiment [15], 7.76 µM (inactive); in [16] it was 21.4 µM (inactive); in experiment [17], 2.06 µM (inactive); in experiment [18], 18.7 µM (inactive); in [19], 2.52 µM (inactive).
On to `Cc1cc(O)c(C(C)C)cc1SC#N`, for which the GI50 is 5.46 µM (inactive) in [1]; 18.5 µM (inactive) in experiment [3]; 18.2 µM (inactive) in experiment [4]; 3.51 µM (inactive) in experiment [5]; 15.6 µM (inactive) in experiment [6]; 21 µM (inactive) in experiment [7]. The GI50 in [8] was 15.5 µM (inactive); in [9] it was 13.7 µM (inactive); in experiment [12] it was 15.5 µM (inactive); in experiment [13], 17.1 µM (inactive); in experiment [14], 16.9 µM (inactive); in [16], 17.8 µM (inactive). Besides, the GI50 in experiment [17] is 14.6 µM (inactive); in experiment [18], 10.7 µM (inactive); in experiment [19], 17.3 µM (inactive); in [20], 17.2 µM (inactive).
For `CC(=O)OC[C@H]1[C@@H]2C(CC[C@]13CO3)OC(=O)CC(C)[C@]2(C)CCc1ccoc1` (some centres undefined), the GI50 in experiment [1], in experiment [2], in experiment [3], in [5], in [6] and in experiment [7] was > 100 µM (inactive) each time. Besides, the GI50 in [8], in [9], in experiment [10], in experiment [11], in [12] and in experiment [13] was > 100 µM (inactive) in each case. For the same compound, the GI50 in [14], in [15], in experiment [16], in experiment [17], in [18] and in experiment [19] was > 100 µM (inactive) throughout. Also, the GI50 in experiment [20] is > 100 µM (inactive).
